This note sets out measurements from patent US20190380937A1, “PROCESS FOR DEPIGMENTING KERATIN MATERIALS USING THIOPYRIDINONE COMPOUNDS” (L'OREAL, priority 2015, published 2019).

Where two headings read alike, the source gives them in different places.

The test system of experiment [1] is normal human melanocytes. The experiment in a line: Depigmenting activity (reduction of melanin production) in normal human melanocytes in vitro. Type of experiment: cell-based. The settings on record: Melanocyte, read-out: IC50 (concentration at which 50% decrease in melanin synthesis is achieved). The method, then: The measurement of the depigmenting activity (reduction of melanin production) of compounds of formula (I) was carried out by assaying normal human melanocytes in vitro as follows.
First of all, normal human melanocytes are cultured and dispensed into 384 wells. After 24 hours, the culture medium was replaced with a medium containing compounds of formula (I) to be evaluated. The cells were incubated for 72 hours before measuring the final optical density, which measures the amount of melanin produced by the melanocytes. A dose-effect is performed using a wide concentration range of the compounds evaluated. Thus, by making the concentrations and the melanin measurements correspond, it is possible to determine an IC50 in μM: concentration at which 50% decrease in melanin synthesis is achieved. The highest concentration used in the test is 200 μM.

Experiment [2] relates to pigmented reconstructed epidermis. The experiment in a line: Test on pigmented reconstructed epidermis samples (melanin quantified by image analysis). Type of experiment: cell-based, human. To be noted: pValue<0.05, control DMSO. As for the experimental part:
[…] EP 1 878 790). The control is DMSO. The melanin was quantified by image analysis on histological slices after staining with Fontana Masson dye. Each sample of coloured epidermis is photographed over its entire length using a camera connected to a microscope. The melanin is thresholded and the number of melanin pixels is measured in each field using automated image analysis software. A non-parametric statistical test is performed in order to determine the significance of the measurements (Mann-Whitney test).
The pigmented reconstructed epidermis standard study model was published by:
Regnier M, Duval C, Galey J B, Philippe M, Lagrange A, Tuloup R, Schmidt R, Cellular and Molecular Biology, 1999, 45, 7, 969-980: “Keratinocyte-Melanocyte co-cultures and pigmented reconstructed human epidermis: models to study modulation of melanogenesis”.

[3] abbreviates: normal human melanocytes, 72 hours incubation, optical density, highest concentration 200 μM.
Where [4] appears, read: Homo sapiens, another campaign, comparison with closest prior art compound of FR 2 968 661.

As to `CN(CC(=O)O)C(=O)c1ccc[nH]c1=S` [Compound 2, N-methyl-N-[(2-thioxo-1,2-dihydropyridin-3-yl)carbonyl]glycine], the IC50 in experiment [1] (setting [3]) came to 5.27 µM. Further, the “depigmenting activity (melanin quantification, Mann-Whitney test)” value (from here on “depigmenting activity”) in experiment [2] (at 100 μM) is “Significant depigmenting activity”.
Take `O=C(O)CNC(=O)c1ccc[nH]c1=S` [Compound 1, N-[(2-thioxo-1,2-dihydropyridin-3-yl)carbonyl]glycine]: in experiment [1] (setting [3]), the IC50 came out at 11.4 µM. In experiment [2] (at 100 μM), the “depigmenting activity” value is reported as “Significant depigmenting activity”.
For `CCOC(=O)CNC(=O)c1ccc[nH]c1=S` [Compound 3, Ethyl N-[(2-thioxo-1,2-dihydropyridin-3-yl)carbonyl]glycinate], the IC50 in experiment [1] (setting [4]) was found to be 20.8 µM; in experiment [1] (setting [3]), 36.8 µM. Moreover, the “depigmenting activity” value in experiment [2] (at 300 μM) is “Significant depigmenting activity”.
For `CCOC(=O)C(C)NC(=O)c1ccc[nH]c1=S` (stereo not shown) [reference compound], the IC50 in experiment [1] (setting [4]) was determined as 37.4 µM.
On to `CCOC(=O)CN(C)C(=O)c1ccc[nH]c1=S` [Compound 4, Ethyl N-methyl-N-[(2-thioxo-1,2-dihydropyridin-3-yl)carbonyl]glycinate], for which the IC50 in experiment [1] (setting [3]) came to 67.6 µM. Further, in experiment [2] (at 300 μM), the “depigmenting activity” value was “Significant depigmenting activity”.
